Laboratory results: US11529422B2, “Polymer linkers and their uses” (priority 2016, dated 2022)
Where a SMILES comes first, the peptide text is derived from it. [ ]: non-standard residue; d: D form. The star is where a group is joined. Dolaproine = CO[C@@H]([C@@H]1CCCN1)[C@@H](C)C(=O)O; Dil = CC[C@H](C)[C@H](NC)[C@@H](CC(=O)O)OC; NMe2Val = CC(C)[C@@H](C(=O)*)N(C)C

Assays:
[1] = tested on: NCI-N87 cells; assay: Cell Viability Assay (CellTiter-Glo), NCI-N87; assay type: cell-based
Method: (§1) Compounds and conjugates were tested for their activity using the Cell Viability Assay (CellTiter-Glo® Luminescent Cell Viability Assay from Promega), which measures the number of viable cells in culture after treatment with the inventive compounds or conjugates for 72 hours based on quantitation of the ATP present (Cell Viability. IC50).

[2] = tested on: SK-BR-3 cells; assay: Cell Viability Assay (CellTiter-Glo), SK-BR-3; assay type: cell-based
Method: as §1

[3] = tested on: BT-474 cells; assay: Cell Viability Assay (CellTiter-Glo), BT-474; assay type: cell-based
Method: as §1

[4] = tested on: MCF7 breast cancer cell; assay: Cell Viability Assay (CellTiter-Glo), MCF7; assay type: cell-based; conditions: MCF7, Table 2 (another assay)
Method: as §1

[5] = tested on: HCC1954 cells; assay: Cell Viability Assay (CellTiter-Glo), HCC1954; assay type: cell-based
Method: as §1

[6] = tested on: HER2 expressing cancer cell lines; conditions: for activity compared with free Auristatin F, in words: summary of Table 1
Method: Three HER2 expressing breast cancer cell lines (BT474, HCC1954 and SK-BR-3) and HER2 expressing gastric cancer cell line NCI-N87 were used in the viability assay. The cells were placed in opaque-walled 96-well plate and allowed to adhere overnight at 37° C. in 5% CO2 and 95% humidity atmosphere. Cell density per well: 7000 (BT474), 3000 (HCC1954), 5000 (NCI-N87), 4000 (SK-BR-3). The test compounds or conjugates were added to experimental wells, and incubate at 37° C. in 5% CO2 and 95% humidity atmosphere for 72 hours. The plates were equilibrated at room temperature for 30 min. CellTiter-Glo® reagent equal to the volume of cell culture medium present in each well was added. After cell lysis on an orbital shaker for 2 min, the plate was incubated at room temperature for 10 min. Luminescence were recorded using EnVision® Multilabel Reader (PerkinElmer, 2104-0010A). GraphPad Prism 5.0 was used to analyze the data. The dose response curves were determined, and the IC50 value was calculated.
Another assay measured the IC50 values for compounds 24 and 25 on the same cell lines and MCF7 breast cancer cell.

[7] = NCI-N87, Table 2 (another assay)
[8] = SK-BR-3, Table 2 (another assay)
[9] = BT-474, Table 2 (another assay)
[10] = HCC1954, Table 2 (another assay)

Row | Molecule | IC50 ([1]; NCI-N87, 72 hours, Table 1) [nM] | IC50 [1, 7] [nM] | IC50 ([2]; SK-BR-3, 72 hours, Table 1) [nM] | IC50 [2, 8] [nM] | IC50 ([3]; BT-474, 72 hours, Table 1) [nM] | IC50 [3, 9] [nM] | IC50 [4] [nM] | IC50 ([5]; HCC1954, 72 hours, Table 1) [nM] | IC50 [5, 10] [nM] | activity compared with free Auristatin F, in words [6] | activity compared with compound 24 and controls, in words ([6]; summary of Table 2, same cell lines and MCF7)
1 | CC[C@H](C)[C@@H]([C@@H](CC(=O)N1CCC[C@H]1[C@H](OC)[C@@H](C)C(=O)N[C@@H](Cc1ccccc1)C(=O)O)OC)N(C)C(=O)[C@@H](NC(=O)[C@H](C(C)C)N(C)C)C(C)C [Auristatin F, reference compound] (NMe2Val-V[Dil][Dolaproine]F-OH) | 69.8 | 386 | 51 | 233 | 264 | 1540 | 1950 | 38.2 | 200 |  | 
2 | N.N.[Cl][Pt][Cl] [Cisplatin, reference compound] | 4560 | 1660 | 1920 | 871 | > 100000 | 38500 | 9150 | 6050 | 6230 |  | 
3 | poly(1-hydroxymethylethylene hydroxy-methyl formal)-SPA-(auristatin F 2-(2-hydroxy-ethoxy)-ethylamide L-Alanine)-(Trastuzumab-MCC) [Compound 16] | 55.6 |  | 22 |  | 0.39 |  |  | 0.13 |  | inhibition of HER2 increases significantly | 
4 | poly(1-hydroxymethylethylene hydroxy-methyl formal)-SPA-(auristatin F 2-(2-hydroxy-ethoxy)-ethylamide L-Alanine)-SSPy [Compound 15] | > 500 |  | 37 |  | 57.4 |  |  | 23.9 |  | activity similar to free Auristatin F | 
5 | poly(1-hydroxymethylethylene hydroxy-methyl formal)-SPA-(auristatin F 2-(2-hydroxy-ethoxy)-ethylamide L-Alanine)-Trastuzumab [Compound 17] | < 0.05 |  | < 0.05 |  | < 0.05 |  |  | < 0.05 |  | inhibition of HER2 increases significantly | 
6 | poly(1-hydroxymethylethylene hydroxy-methyl formal)-SPA-(auristatin F 2-(2-hydroxy-ethoxy)-ethylamide L-Alanine)-Trastuzumab [Compound 25] |  | 0.3 |  | 0.1 |  | 0.4 | 3.3 |  | 0.2 |  | significant increase in activity as compared to compound 24
7 | poly(1-hydroxymethylethylene hydroxy-methyl formal)-SPA-(auristatin F 2-(2-hydroxy-ethoxy)-ethylamide L-Alanine)-maleimide [Compound 14] | > 500 |  | 48 |  | 87.9 |  |  | 32.2 |  | activity similar to free Auristatin F | 
8 | poly(1-hydroxymethylethylene hydroxy-methyl formal)-SPA-(auristatin F 2-(2-hydroxy-ethoxy)-ethylamide L-Alanine)-maleimide [Compound 24] |  | 91.5 |  | 56.6 |  | 58 | 230 |  | 45.9 |  | 
